These results are taken from patent US6596863B2, “Medical composition containing nitroetheneamine Derivative or salt there of as active constituent” (Ishihara Sangyo Kaisha, Ltd., priority 1998, dated 2003).

Like-named read-outs stand apart in the source and are kept apart here. Marks after values point to notes of the source that are not given here.

For test [1], the target named is T1, human MMP-7 (Homo sapiens, UniProt P09237).
T1 construct: purchased Kabushiki Kaisha Yagai Chuo Kenkyusho YU-31001
T1 sequence (P09237 95-267): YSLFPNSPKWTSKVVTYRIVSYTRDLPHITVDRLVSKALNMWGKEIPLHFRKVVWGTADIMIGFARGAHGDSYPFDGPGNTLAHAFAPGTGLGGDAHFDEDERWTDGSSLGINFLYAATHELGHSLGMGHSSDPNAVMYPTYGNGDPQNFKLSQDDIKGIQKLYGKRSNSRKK
Kind of test: Enzyme inhibition activity against MMP-7 (matrilysin), fluorescent peptide substrate NFF-2. The conditions noted are these: human MMP-7, substrate NFF-2, 37° C. for 2.5 hours. It counts as biochemical. On the procedure:
The inhibition activity against human MMP-7 was measured by the same method as the method for MMP-3, by using a MMP-7 solution (0.025 unit/ml; No. YU-31001, manufactured by Kabushiki Kaisha Yagai Chuo Kenkyusho, purity: at least 99.9%) and a fluorescent peptide substrate MOCAc—Arg-Pro-Lys-Pro-Tyr—Ala-Nva-Trp-Met-Lys(Dnp) -NH2 [NFF-2, No. 3167-v, manufactured by Peptide Institute, Inc.]. The enzymatic reaction was carried out at 37° C. for 2.5 hours in a dark place, and the relative fluorescence intensity was measured at a fluorescence wavelength of 400 nm with an excitation wavelength of 327 nm.

Test [2] addresses T2, human MMP-9 (gelatinase B) (Homo sapiens, UniProt P14780).
T2 construct: endogenous in cells; host or cells: HT1080 human fibrosarcoma cells (ATCC CCL-121), PMA-stimulated; enzyme purified from the culture supernatant
Kind of test: Inhibition activity against human MMP-9 (gelatinase B), fluorescent peptide substrate. It counts as biochemical. The conditions noted are these: compounds of the formula (I). A digest of the protocol: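 MMP-9 purified from PMA-stimulated (10 ng/ml) HT1080 supernatant, or commercial enzyme (0.0125-0.025 unit/ml or 0.2 μg/ml final), incubated with compound and 10 μM final Mca-Pro-Leu-Gly-Leu-Dpa-Ala-Arg-NH2 fluorescent substrate at 37 °C for 3 h in the dark. Precursor enzyme activated with APMA.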

In test [3] the test system is Colon 26/AD cells (mouse colon cancer). Format: in vivo. The method, then:
Colon 26 mouse colon cancer cells (obtained from Cancer Chemotherapy Center Foundation for Cancer Research) were transplanted subcutaneously to BALB/c mouse, 10 days later, the grown tumor was taken out. It was hashed in a Hanks equilibrium salt solution and passed through a metal mesh to obtain single cells, which were cultured in vitro (37° C., 5% CO2) (using 10% fetal bovine serum-containing Dulbecco's Modified Eagle Medium (D-5648, manufactured by Sigma Co.)). […] The same cell strain always produced and secreted MMP-2 in the supernatant of the in vitro culture, but when cultured by an addition of TNF-α (50 ng/ml) in the culture solution, it produced MMP-9 remarkably.
With reference to the method by Tsuruo et al (Japanese Journal of Cancer Research (Gann), Vol. 75, 193-198, 1984), the inhibition effects against experimental lung metastasis were evaluated. Namely, 3×10^4 Colon 26/AD cells (suspended in 0.2 ml of Minimum Essential Medium (manufactured by Nissui Seiyaku K. K.)) cultured in vitro were transplanted through the tail vein of a male BALB/c AnNCrj mouse (purchased from Charles River Japan, Inc.) of 6 weeks old (Day 0). In the case of Compound No. 37, it was suspended in a 1% Tween 80/physiological sodium chloride aqueous solution and intraperitoneally administered (administered in a volume of 10 ml/kg) immediately (within 5 minutes) before transplantation of the cells, 2 hours later and once per day on Day 1-4 and Day 7-11 (a total of 11 times). Further, in the case of Compound No. 157, it was dissolved in 100 mM Tris-HCl (pH 8.5)/150 mM NaCl and forcibly orally administered (administered in a volume of 10 ml/kg) by means of a metal sonde 30 minutes before transplantation of the cells, in the morning and evening of Day 1 and once per day on Day 2-4, Day 7-11 and Day 14 (a total of 12 times). To the vehicle control group, the respective solvents containing no test materials, were administered in the same manner. On Day 14 or Day 15, the lung of each mouse was taken out, and the weight was measured, and the metastatis inhibition rate was calculated in accordance with the following formula. [formula]
A is the weight of lung of the treated group
B is the average weight of lung of the normal group
C is the average weight of lung of the solvent control group.

T2 sequence (P14780 107-707 limits assumed): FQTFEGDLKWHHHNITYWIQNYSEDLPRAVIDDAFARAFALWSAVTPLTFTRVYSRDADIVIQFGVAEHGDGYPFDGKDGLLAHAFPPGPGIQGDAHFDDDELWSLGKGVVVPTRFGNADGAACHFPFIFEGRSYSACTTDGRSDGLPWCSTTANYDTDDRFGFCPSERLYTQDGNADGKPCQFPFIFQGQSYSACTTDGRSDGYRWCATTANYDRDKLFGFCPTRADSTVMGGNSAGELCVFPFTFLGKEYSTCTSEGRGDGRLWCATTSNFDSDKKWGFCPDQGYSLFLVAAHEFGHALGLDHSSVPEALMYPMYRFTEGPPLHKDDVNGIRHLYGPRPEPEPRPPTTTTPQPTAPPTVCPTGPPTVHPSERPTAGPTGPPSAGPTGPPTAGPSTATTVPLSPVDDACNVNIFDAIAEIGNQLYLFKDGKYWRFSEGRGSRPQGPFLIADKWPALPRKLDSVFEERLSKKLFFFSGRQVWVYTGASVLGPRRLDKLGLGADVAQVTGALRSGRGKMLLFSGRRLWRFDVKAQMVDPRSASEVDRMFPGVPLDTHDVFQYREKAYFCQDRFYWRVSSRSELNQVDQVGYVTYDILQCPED

As for `CNC(=C[N+](=O)[O-])NNc1cc(C(F)(F)F)cc(Cl)n1` [Compound No. 37], the IC50 was 24.5 µM in test [1]; 4.5 µM in test [2] (1st measurement, read-out: MMP-9 inhibition activities IC50, 1st); 7 µM in test [2] (2nd measurement, read-out: MMP-9 inhibition activities IC50, 2nd); 5.8 µM in test [2] (average of 1st and 2nd (or single measurement), read-out: MMP-9 inhibition activities IC50, Average). For the same compound, in test [3] (30 mg/kg × 11 times, intraperitoneal, Day 14), the “Metastatis inhibition ratio (%)” value stood at 40.2%*. In addition, in test [3] (30 mg/kg × 11 times, intraperitoneal, Day 14, vehicle control 0.189 ± 0.07), the “Lung weight increase (g) against normal mouse” value is recorded as 0.113 ± 0.06 g. Besides, the “Weight of lung (g) (Day 14)” value in test [3] (30 mg/kg × 11 times, intraperitoneal, Day 14, vehicle control 0.402, normal mouse 0.213) was determined as 0.326 g. For the same compound, the “inhibition ratio of experimental metastasis of Colon 26/AD to lung” value in test [3] (30 mg/kg, intraperitoneal administration, total of 11 times, male BALB/c mouse, from lung weight) is 40.2%.

The IC50 is the concentration that gives 50% inhibition.
